Our source for the IC50 values is patent US8546376B2, “Pharmaceutical compounds” (Almac Discovery Limited, priority 2009, dated 2013).

Where only a bound is given, the exact number is not on record here.

What all share (format): biochemical
Assay [1] has as its target T1, AKT1 (Homo sapiens, UniProt P31749).
T1 construct: purchased SignalChem
The assay is described as follows: AKT Kinase Assay (IMAP fluorescent polarisation) vs AKT1. Particulars: activated AKT1, FAM Crosstide substrate. The protocol: (§1) Testing of the compounds was performed using an AKT Kinase Assay:
(§2) Activated AKT isoforms 1, 2 and 3 were assayed utilising a 5′ FAM Crosstide (Seq. GRPRTSSFAEG-OH). The extent of kinase phosphorylation was determined by fluorescent polarisation using IMAP progressive binding reagent, which introduces binding beads which allow the reagent to specifically bind to phosphate residues via covalent co-ordination complex bonds.
(§3) iMAP binding solution stops Crosstide/kinase interaction and specifically binds phosphorylated substrates. The degree of phosphorylation is determined by fluorescent polarisation (excitation 485 nm; emission 528 nm) or the reduction in speed of rotation of the excited substrate.
(§4) The following materials were used in the assay: • a) Activated AKT isoforms (SignalChem.) dissolved in Complete Reaction buffer at a pre-determined concentration selected so that the assay was carried out in the linear range. • b) AKT substrate peptide: FAM Crosstide (R7110) Molecular Devices, diluted in complete reaction buffer. • c) iMAP Progressive Screening Express Kit (R8127) Molecular Devices • d) Complete Reaction Buffer containing 0.1% BSA, 10 mM Tris-HCl, 10 mM MgCl2, 0.05% NaN3 and 0.01% phosphate free BSA, 1 mM DTT • e) Progressive Binding Solution containing 75% Buffer A, 25% Buffer B and low volume Binding Reagent which contains the binding entity for the assay • f) ATP diluted in complete reaction buffer • g) Black polystyrene 384 well assay plates (Nunc). • h) Biotek Synergy 4 Hybrid Plate reader.
(§5) 5 μl of test compound was dissolved in DMSO (Sigma Aldrich) and serially diluted in complete reaction buffer to give a fourteen point half log dose response and plated into 384 well black plates. The compound was incubated at room temperature with activated AKT isoform (5 μl) at the pre-determined concentration, for 45 minutes.
(§6) 2.5 μl of ATP solution mixed with 2.5 μl of AKT substrate peptide (FAM Crosstide (R7110) Molecular Devices) were dispensed into each well and the plate centrifuged at 1000 rpm for 20 seconds to ensure homogenous mixing of reagents. The reaction mix was incubated in the dark for one hour at room temperature.
(§7) The kinase reaction was stopped by the addition of Progressive Binding Solution and the mixture allowed to equilibrate for one hour in the dark, at room temperature.
(§8) The fluorescent polarisation generated in each well was determined using a […] Synergy 4 Hybrid plate reader. In brief, each reaction solution was excited at 485 nm with the emission measured at 528 nm in both the parallel and perpendicular pathway.
(§9) The polarisation value generated in each well was calculated by Gen5 software (Biotek) and the % inhibition of kinase activity compared to vehicle control was calculated via GraphPad Prism. IC50 values for each compound were calculated by non-linear regression analysis using Prism software.
(§10) All plates were internally controlled by two methods. Firstly, by calculating the signal:noise ratio; based on kinase polarisation without inhibitor and polarisation generated by complete reaction buffer in the absence of activated kinase. Secondly by determining IC50 values generated by known inhibitors of the AKT isoforms.

For assay [2], the target named is T2, AKT2 (Homo sapiens, UniProt P31751).
T2 construct: purchased SignalChem
The assay is described as follows: AKT Kinase Assay (IMAP fluorescent polarisation) vs AKT2. The settings on record: activated AKT2, FAM Crosstide substrate. The protocol:
as §1, §2, §3, §4, §5, §6, §7, §8, §9, §10

Assay [3] deals with T3, AKT3 (Homo sapiens, UniProt Q9Y243).
T3 construct: purchased SignalChem
Description: AKT Kinase Assay (IMAP fluorescent polarisation) vs AKT3. The settings on record: activated AKT3, FAM Crosstide substrate. The protocol:
as §1, §2, §3, §4, §5, §6, §7, §8, §9, §10

T1 sequence (P31749 whole entry): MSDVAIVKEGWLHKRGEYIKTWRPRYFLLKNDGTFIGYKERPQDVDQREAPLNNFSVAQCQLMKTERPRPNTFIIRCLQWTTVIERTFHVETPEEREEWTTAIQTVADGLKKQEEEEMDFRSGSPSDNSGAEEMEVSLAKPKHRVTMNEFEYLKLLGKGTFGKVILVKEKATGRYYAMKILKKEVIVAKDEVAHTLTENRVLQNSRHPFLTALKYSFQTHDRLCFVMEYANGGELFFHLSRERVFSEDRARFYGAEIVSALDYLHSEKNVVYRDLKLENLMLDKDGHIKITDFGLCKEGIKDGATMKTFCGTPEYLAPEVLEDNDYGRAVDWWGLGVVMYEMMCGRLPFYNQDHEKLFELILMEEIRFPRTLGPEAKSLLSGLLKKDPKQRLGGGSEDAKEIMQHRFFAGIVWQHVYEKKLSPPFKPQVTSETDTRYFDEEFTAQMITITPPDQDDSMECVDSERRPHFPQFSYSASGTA
T3 sequence (Q9Y243 whole entry): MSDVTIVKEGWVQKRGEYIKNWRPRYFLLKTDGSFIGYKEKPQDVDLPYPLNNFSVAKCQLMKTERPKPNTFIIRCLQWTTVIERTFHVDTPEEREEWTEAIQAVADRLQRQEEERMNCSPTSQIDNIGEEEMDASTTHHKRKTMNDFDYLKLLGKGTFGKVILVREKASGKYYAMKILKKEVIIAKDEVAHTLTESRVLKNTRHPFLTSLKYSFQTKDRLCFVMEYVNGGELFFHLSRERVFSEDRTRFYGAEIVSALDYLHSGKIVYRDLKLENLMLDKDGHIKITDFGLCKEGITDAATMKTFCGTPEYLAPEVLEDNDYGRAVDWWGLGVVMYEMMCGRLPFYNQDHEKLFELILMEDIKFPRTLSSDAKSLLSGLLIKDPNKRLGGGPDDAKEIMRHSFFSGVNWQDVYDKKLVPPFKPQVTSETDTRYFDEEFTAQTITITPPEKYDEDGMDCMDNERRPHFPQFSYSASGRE
T2 sequence (P31751 whole entry): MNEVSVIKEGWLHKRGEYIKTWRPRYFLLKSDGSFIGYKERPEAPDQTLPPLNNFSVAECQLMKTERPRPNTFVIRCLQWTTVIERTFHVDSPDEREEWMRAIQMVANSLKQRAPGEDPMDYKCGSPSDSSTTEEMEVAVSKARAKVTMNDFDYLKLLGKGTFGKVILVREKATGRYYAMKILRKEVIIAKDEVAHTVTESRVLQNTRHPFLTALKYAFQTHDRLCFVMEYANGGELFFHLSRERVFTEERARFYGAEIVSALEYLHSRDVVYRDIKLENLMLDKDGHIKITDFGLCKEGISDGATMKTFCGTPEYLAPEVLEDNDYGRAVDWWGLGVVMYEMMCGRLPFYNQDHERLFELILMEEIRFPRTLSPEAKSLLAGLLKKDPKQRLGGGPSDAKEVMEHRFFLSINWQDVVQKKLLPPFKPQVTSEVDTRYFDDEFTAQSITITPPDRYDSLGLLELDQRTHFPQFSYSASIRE

As for `NC1(c2ccc(-c3c(-c4ccccc4)oc4ccc(F)cc4c3=O)cc2)CCC1` [Example 1, 3-[4-(1-Amino-cyclobutyl)-phenyl]-6-fluoro-2-phenyl-chromen-4-one], the IC50 is 1 to 10 µM in assay [1], 1 to 10 µM in assay [2] and over 10 µM in assay [3].

Turning to `NC1(c2ccc(-c3c(-c4ccccc4)oc4c(F)cccc4c3=O)cc2)CCC1` [Example 2, 3-[4-(1-Amino-cyclobutyl)-phenyl]-8-fluoro-2-phenyl-chromen-4-one], the values for the concentration for half-maximal inhibition (IC50) in assay [1], in assay [2] and in assay [3] were at most 1 µM, 1 to 10 µM and over 10 µM, respectively.

In the case of `NC1(c2ccc(-c3c(-c4ccccc4)oc4cccc(F)c4c3=O)cc2)CCC1` [Example 3, 3-[4-(1-Amino-cyclobutyl)-phenyl]-5-fluoro-2-phenyl-chromen-4-one], the IC50 in assay [1] is 1 to 10 µM; in assay [2] it was 1 to 10 µM; in assay [3], over 10 µM.

`COc1ccc2oc(-c3ccccc3)c(-c3ccc(C4(N)CCC4)cc3)c(=O)c2c1` [Example 5, 3-[4-(1-Amino-cyclobutyl)-phenyl]-6-methoxy-2-phenyl-chromen-4-one]: the 50% inhibitory concentration (IC50) in assay [1] is 1 to 10 µM; in assay [2], 1 to 10 µM; in assay [3], over 10 µM.

As for `COc1cc2c(=O)c(-c3ccc(C4(N)CCC4)cc3)c(-c3ccccc3)oc2cc1C` [Example 6, 3-[4-(1-Amino-cyclobutyl)-phenyl]-6-methoxy-7-methyl-2-phenyl-chromen-4-one], the IC50 in assay [1] is over 10 µM; in assay [2] it was 1 to 10 µM; in assay [3] it was over 10 µM.

Consider `COc1cc2oc(-c3ccccc3)c(-c3ccc(C4(N)CCC4)cc3)c(=O)c2cc1C` [Example 7, 3-[4-(1-Amino-cyclobutyl)-phenyl]-7-methoxy-6-methyl-2-phenyl-chromen-4-one], for which the IC50 in assay [1] was 1 to 10 µM; in assay [2], 1 to 10 µM; in assay [3], over 10 µM.

Take `NC1(c2ccc(-c3c(-c4ccccc4)oc4cc5c(cc4c3=O)OCCO5)cc2)CCC1` [Example 8, 7-[4-(1-Amino-cyclobutyl)-phenyl]-6-Phenyl-2,3-dihydro-1,4,5-trioxa-anthracen-8-one]: the 50% inhibitory concentration (IC50) was 1 to 10 µM in assay [1], 1 to 10 µM in assay [2] and over 10 µM in assay [3].

Consider `COc1ccc2c(=O)c(-c3ccc(C4(N)CCC4)cc3)c(-c3ccccc3)oc2c1Br` [Example 9, 3-[4-(1-Amino-cyclobutyl)-phenyl]-8-bromo-7-methoxy-2-phenyl-chromen-4-one], for which the IC50 was at most 1 µM in assay [1], at most 1 µM in assay [2] and 1 to 10 µM in assay [3].

In the case of `COc1cc2oc(-c3ccccc3)c(-c3ccc(C4(N)CCC4)cc3)c(=O)c2cc1C(N)=O` [Example 10, 3-[4-(1-Amino-cyclobutyl)-phenyl]-7-methoxy-4-oxo-2-phenyl-4H-chromene-6-carboxylic acid amide], the figures for the half-inhibitory concentration (IC50) in assay [1], in assay [2] and in assay [3] were 1 to 10 µM, at most 1 µM and 1 to 10 µM, respectively.

Turning to `COc1cc2oc(-c3ccccc3)c(-c3ccc(C4(N)CCC4)cc3)c(=O)c2cc1C#N` [Example 11, 3-[4-(1-Amino-cyclobutyl)-phenyl]-7-methoxy-4-oxo-2-phenyl-4H-chromene-6-carbonitrile], the IC50 was 1 to 10 µM in assay [1], 1 to 10 µM in assay [2] and over 10 µM in assay [3].

Consider `COc1ccc2c(=O)c(-c3ccc(C4(N)CCC4)cc3)c(-c3ccccc3)oc2c1C#N` [Example 12, 3-[4-(1-Amino-cyclobutyl)-phenyl]-7-methoxy-4-oxo-2-phenyl-4H-chromene-8-carbonitrile], for which the concentration for half-maximal inhibition (IC50) in assay [1] was 1 to 10 µM; in assay [2], at most 1 µM; in assay [3], 1 to 10 µM.

With `NC1(c2ccc(-c3c(-c4ccccc4)oc4cc(Br)ccc4c3=O)cc2)CCC1` [Example 13, 3-[4-(1-Amino-cyclobutyl)-phenyl]-2-phenyl-7-bromo-chromen-4-one], the IC50 is 1 to 10 µM in assay [1], 1 to 10 µM in assay [2] and over 10 µM in assay [3].

`COc1ccc2c(=O)c(-c3ccc(C4(N)CCC4)cc3)c(-c3ccccc3)oc2c1` [Example 14]: the IC50 in assay [1] was 1 to 10 µM; in assay [2], 1 to 10 µM; in assay [3] it was over 10 µM.

For the compound `COc1cc2oc(-c3ccccc3)c(-c3ccc(C4(N)CCC4)cc3)c(=O)c2cc1OC` [Example 15, 3-[4-(1-Amino-cyclobutyl)-phenyl]-6,7-dimethoxy-2-phenyl-chromen-4-one], the results for the IC50 in assay [1], in assay [2] and in assay [3] were 1 to 10 µM, at most 1 µM and 1 to 10 µM, respectively.

With `COc1cccc2c(=O)c(-c3ccc(C4(N)CCC4)cc3)c(-c3ccccc3)oc12` [Example 16, 3-[4-(1-Amino-cyclobutyl)-phenyl]-8-methoxy-2-phenyl-chromen-4-one], the IC50 in assay [1], in assay [2] and in assay [3] was 1 to 10 µM in each case.

In the case of `NC1(c2ccc(-c3c(-c4ccccc4)oc4cc(-c5ccn[nH]5)ccc4c3=O)cc2)CCC1` [Example 17], the figures for the IC50 in assay [1], in assay [2] and in assay [3] were over 10 µM, 1 to 10 µM and over 10 µM, respectively.

In the case of `NC(=O)c1ccc2c(=O)c(-c3ccc(C4(N)CCC4)cc3)c(-c3ccccc3)oc2c1` [Example 18, 3-[4-(1-Amino-cyclobutyl)-phenyl]-4-oxo-2-phenyl-4H-chromene-7-carboxylic acid amide], the 50% inhibitory concentration (IC50) in assay [1] was over 10 µM; in assay [2], 1 to 10 µM; in assay [3], over 10 µM.

Take `NC1(c2ccc(-c3c(-c4ccccc4)oc4ccc(Br)cc4c3=O)cc2)CCC1` [Example 19, 3-[4-(1-Amino-cyclobutyl)-phenyl]-6-bromo-2-phenyl-chromen-4-one]: the half-inhibitory concentration (IC50) in assay [1], in assay [2] and in assay [3] was 1 to 10 µM each time.

With `N#Cc1ccc2oc(-c3ccccc3)c(-c3ccc(C4(N)CCC4)cc3)c(=O)c2c1` [Example 21, 3-[4-(1-Amino-cyclobutyl)-phenyl]-4-oxo-2-phenyl-4H-chromene-6-carbonitrile], the values for the half-inhibitory concentration (IC50) in assay [1], in assay [2] and in assay [3] were 1 to 10 µM, 1 to 10 µM and over 10 µM, respectively.

With `NC1(c2ccc(-c3c(-c4ccccc4)oc4ccc(-n5ccnc5)cc4c3=O)cc2)CCC1` [Example 22, 3-[4-(1-Amino-cyclobutyl)-phenyl]-6-imidazol-1-yl-2-phenyl-chromen-4-one], the concentration for half-maximal inhibition (IC50) in assay [1] is 1 to 10 µM; in assay [2], 1 to 10 µM; in assay [3] it was over 10 µM.

On to `NC1(c2ccc(-c3c(-c4ccccc4)oc4cc(F)c(F)cc4c3=O)cc2)CCC1` [Example 23, 3-[4-(1-Amino-cyclobutyl)-phenyl]-6,7-difluoro-2-phenyl-chromen-4-one], for which the 50% inhibitory concentration (IC50) in assay [1] was 1 to 10 µM; in assay [2], 1 to 10 µM; in assay [3], over 10 µM.

Turning to `NC1(c2ccc(-c3c(-c4ccccc4)oc4cc(OC(F)(F)F)ccc4c3=O)cc2)CCC1` [Example 24, 3-[4-(1-Amino-cyclobutyl)-phenyl]-2-phenyl-7-trifluoromethoxy-chromen-4-one], the IC50 in assay [1] was over 10 µM; in assay [2], 1 to 10 µM; in assay [3], over 10 µM.

Take `NC1(c2ccc(-c3c(-c4ccccc4)oc4ccc(OC(F)(F)F)cc4c3=O)cc2)CCC1` [Example 25, 3-[4-(1-Amino-cyclobutyl)-phenyl]-2-phenyl-6-trifluoromethoxy-chromen-4-one]: the results for the IC50 in assay [1], in assay [2] and in assay [3] were over 10 µM, 1 to 10 µM and over 10 µM, respectively.

Turning to `COc1cc2c(=O)c(-c3ccc(C4(N)CCC4)cc3)c(-c3ccccc3)oc2cc1Br` [Example 26, 3-[4-(1-Amino-cyclobutyl)-phenyl]-7-bromo-6-methoxy-2-phenyl-chromen-4-one], the results for the half-inhibitory concentration (IC50) in assay [1], in assay [2] and in assay [3] were over 10 µM, 1 to 10 µM and over 10 µM, respectively.

On to `COc1cc2oc(-c3ccccc3)c(-c3ccc(C4(N)CCC4)cc3)c(=O)c2cc1Br` [Example 27, 3-[4-(1-Amino-cyclobutyl)-phenyl]-6-bromo-7-methoxy-2-phenyl-chromen-4-one], for which the IC50 in assay [1] is over 10 µM; in assay [2] it was 1 to 10 µM; in assay [3] it was over 10 µM.

As a reminder, the IC50 is the concentration that gives 50% inhibition.
